Patent publication US11179395B2, “Treating melanoma with mebendazole and a mitogen-activated kinase inhibitor” (GEORGETOWN UNIVERSITY, priority 2017, dated 2021)
Like-named read-outs stand apart in the source and are kept apart here. Values belong to the molecule of their own block, whether it stands above or below them.

Assays:
[1] = system: BAK, BUL and STU melanoma cells; test: XTT cell viability assay, all three melanoma cell lines; assay type: cell-based, Human; details: 72 h
Procedure: FIGS. 2A-2C show decreased viability of melanoma cells exposed to MBZ, dabrafenib (D), trametinib (T), or combinations of T+D or MBZ+trametinib. A) BAK (BRAFWT/NRASQ61K); B) BUL (BRAFWT/NRASQ61K); and C.) STU (BRAFV600K/NRASWT) melanoma cells were exposed to the indicated concentrations of MBZ, D, T, T+D or MBZ+trametinib (T+MBZ) for 72 h, and subjected to XTT cell viability assays, as described in the Examples. Error bars represent mean±SD for triplicates. […] The results shown are based on a single experiment in triplicate; and repeated in three independent experiments with essentially the same results.
MBZ, dabrafenib, and trametinib were purchased from Sigma-Aldrich (St. Louis, Mo.) and ActiveBiochem (Maplewood, N.J.), respectively. 5×10^3 viable cells per well were plated in 96-well dishes and allowed to recover for 12 h prior to drug treatment. Cells in triplicate wells were treated for up to 72 h (based on initial time course experiments showing maximal effects at that time point) with different concentrations of trametinib, dabrafenib, or MBZ alone, or a combination of MBZ and trametinib. Negative controls were exposed to vehicle DMSO in the same volumes. Cell viability was assessed by an XTT assay, according to a manufacturer's specifications (Biotium Inc (Fremont, Calif.)). Reduced XTT was measured by absorbance at 490 nm on a PerkinElmer Victor 3 (Duluth, Ga.) plate reader. Cells exposed to detergent served as a positive control.

[2] = Pharmacokinetic studies of MBZ formulations; assay type: in vivo, athymic mice; details: for mean plasma exposure at 8 hours / concentration at 8 h: MBZ 40 mg/kg oral gavage; for concentration at 8 h: athymic, mouse, plasma, oral, 40 mg/kg, read-out: mean plasma exposure at 8 hours
Procedure: In pharmacokinetic (PK) studies, MBZ was administered to athymic mice (described below) by oral gavage at a dose of 40 mg/kg in three different formulations (methylcellulose, oleic acid, or sesame oil/PBS) or methylcellulose in combination with cimetidine. MBZ and two metabolites, 2-Amino-5-benzoyl-1H bezimidizole (2ABB), and rac Dihydro MBZ (RDM), were quantified in mouse plasma as described in Bai et al., “Brain Penetration and Efficacy of Different Mebendazole Polymorphs in a Mouse Brain Tumor Model,” Clin. Cancer Res. 21:3462-3470 (2015)).

[3] = Pharmacokinetic studies of MBZ formulations; assay type: in vivo, athymic mice; details: MBZ 40 mg/kg oral gavage; for lower exposure with trametinib co-administration vs. methylcellulose: 8 hours
BRAFV600E = BRAFV600E (Homo sapiens, UniProt P15056, V600E); test: In-vitro binding affinity of MBZ (FIG. 1C)
Sequence of BRAFV600E (P15056 whole entry V600E): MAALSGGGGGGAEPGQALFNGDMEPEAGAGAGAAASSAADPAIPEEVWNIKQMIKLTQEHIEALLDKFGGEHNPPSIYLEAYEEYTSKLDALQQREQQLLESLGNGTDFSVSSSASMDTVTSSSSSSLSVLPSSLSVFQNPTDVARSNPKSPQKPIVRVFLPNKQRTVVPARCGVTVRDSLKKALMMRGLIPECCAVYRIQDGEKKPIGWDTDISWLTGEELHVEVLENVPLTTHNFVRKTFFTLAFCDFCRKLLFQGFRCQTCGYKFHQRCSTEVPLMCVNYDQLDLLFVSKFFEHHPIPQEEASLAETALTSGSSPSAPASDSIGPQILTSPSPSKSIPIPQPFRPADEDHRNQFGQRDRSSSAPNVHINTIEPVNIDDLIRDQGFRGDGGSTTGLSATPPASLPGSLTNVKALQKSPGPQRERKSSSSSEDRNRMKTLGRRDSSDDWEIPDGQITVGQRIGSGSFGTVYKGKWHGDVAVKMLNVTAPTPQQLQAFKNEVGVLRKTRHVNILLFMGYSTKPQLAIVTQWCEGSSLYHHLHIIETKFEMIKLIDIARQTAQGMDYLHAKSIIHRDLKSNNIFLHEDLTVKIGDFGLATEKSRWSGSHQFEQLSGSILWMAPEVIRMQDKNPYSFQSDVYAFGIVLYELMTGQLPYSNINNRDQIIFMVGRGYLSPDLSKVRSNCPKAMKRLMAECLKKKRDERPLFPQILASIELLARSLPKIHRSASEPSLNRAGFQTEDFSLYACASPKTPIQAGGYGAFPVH
Text: (§1) Efforts to develop drugs targeting mutant BRAF led to FDA approval of vemurafenib in 2011 and dabrafenib in 2013. […] In addition, other MAPK pathway proteins including CRAF and MEK were identified.

BRAFWT = BRAFWT (Homo sapiens, UniProt P15056); test: In-vitro binding affinity of MBZ (FIG. 1C)
Sequence of BRAFWT (P15056 whole entry): as the sequence (P15056 whole entry V600E) above, with E600V counted along it
Text: as §1

BRAF = test: In-vitro kinase assay; assay type: biochemical
Text: as §1

MEK = test: In-vitro kinase assay; assay type: biochemical
Text: as §1

CRAF = CRAF (Homo sapiens, UniProt P04049); test: Affinity of MBZ for CRAF; assay type: binding
Sequence of CRAF (P04049 whole entry, canonical isoform): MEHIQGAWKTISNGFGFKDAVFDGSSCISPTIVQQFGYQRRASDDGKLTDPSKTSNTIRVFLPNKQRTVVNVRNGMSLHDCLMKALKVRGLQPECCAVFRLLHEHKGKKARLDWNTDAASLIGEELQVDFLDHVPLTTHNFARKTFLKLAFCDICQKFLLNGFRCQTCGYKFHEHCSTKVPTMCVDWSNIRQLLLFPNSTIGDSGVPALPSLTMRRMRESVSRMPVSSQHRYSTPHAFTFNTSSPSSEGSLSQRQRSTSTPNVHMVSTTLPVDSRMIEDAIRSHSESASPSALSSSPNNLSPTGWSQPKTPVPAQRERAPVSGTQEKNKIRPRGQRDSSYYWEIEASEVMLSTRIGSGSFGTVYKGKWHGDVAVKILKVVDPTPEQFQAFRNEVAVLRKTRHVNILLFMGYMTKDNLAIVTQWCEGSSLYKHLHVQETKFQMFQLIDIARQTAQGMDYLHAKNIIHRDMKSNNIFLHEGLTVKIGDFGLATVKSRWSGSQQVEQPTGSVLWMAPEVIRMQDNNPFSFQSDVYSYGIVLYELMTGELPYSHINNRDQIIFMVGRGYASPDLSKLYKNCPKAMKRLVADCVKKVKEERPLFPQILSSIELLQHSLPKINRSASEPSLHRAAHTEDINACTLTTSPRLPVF
Text: MBZ interacts with VEGFR in silico and MBZ interacts with additional kinases in vitro, including BCR-ABL and BRAF. TMFS was used to show the nature of the interactions between MBZ, and VEGFR, and with BRAFWT or BRAFV600E. […] In fact these inhibitors actually enhance growth of NRASmut/BRAFWT tumors by paradoxically further activating the MAPK pathway through induced conformational changes in wild type RAF isoforms, inducing dimerization, membrane localization, and activation by RAS.

VEGFR2 = VEGFR2 (Homo sapiens, UniProt P35968); test: MBZ potency towards VEGFR2 compared with BRAF (FIG. 1C); assay type: biochemical
Sequence of VEGFR2 (P35968 20-1356): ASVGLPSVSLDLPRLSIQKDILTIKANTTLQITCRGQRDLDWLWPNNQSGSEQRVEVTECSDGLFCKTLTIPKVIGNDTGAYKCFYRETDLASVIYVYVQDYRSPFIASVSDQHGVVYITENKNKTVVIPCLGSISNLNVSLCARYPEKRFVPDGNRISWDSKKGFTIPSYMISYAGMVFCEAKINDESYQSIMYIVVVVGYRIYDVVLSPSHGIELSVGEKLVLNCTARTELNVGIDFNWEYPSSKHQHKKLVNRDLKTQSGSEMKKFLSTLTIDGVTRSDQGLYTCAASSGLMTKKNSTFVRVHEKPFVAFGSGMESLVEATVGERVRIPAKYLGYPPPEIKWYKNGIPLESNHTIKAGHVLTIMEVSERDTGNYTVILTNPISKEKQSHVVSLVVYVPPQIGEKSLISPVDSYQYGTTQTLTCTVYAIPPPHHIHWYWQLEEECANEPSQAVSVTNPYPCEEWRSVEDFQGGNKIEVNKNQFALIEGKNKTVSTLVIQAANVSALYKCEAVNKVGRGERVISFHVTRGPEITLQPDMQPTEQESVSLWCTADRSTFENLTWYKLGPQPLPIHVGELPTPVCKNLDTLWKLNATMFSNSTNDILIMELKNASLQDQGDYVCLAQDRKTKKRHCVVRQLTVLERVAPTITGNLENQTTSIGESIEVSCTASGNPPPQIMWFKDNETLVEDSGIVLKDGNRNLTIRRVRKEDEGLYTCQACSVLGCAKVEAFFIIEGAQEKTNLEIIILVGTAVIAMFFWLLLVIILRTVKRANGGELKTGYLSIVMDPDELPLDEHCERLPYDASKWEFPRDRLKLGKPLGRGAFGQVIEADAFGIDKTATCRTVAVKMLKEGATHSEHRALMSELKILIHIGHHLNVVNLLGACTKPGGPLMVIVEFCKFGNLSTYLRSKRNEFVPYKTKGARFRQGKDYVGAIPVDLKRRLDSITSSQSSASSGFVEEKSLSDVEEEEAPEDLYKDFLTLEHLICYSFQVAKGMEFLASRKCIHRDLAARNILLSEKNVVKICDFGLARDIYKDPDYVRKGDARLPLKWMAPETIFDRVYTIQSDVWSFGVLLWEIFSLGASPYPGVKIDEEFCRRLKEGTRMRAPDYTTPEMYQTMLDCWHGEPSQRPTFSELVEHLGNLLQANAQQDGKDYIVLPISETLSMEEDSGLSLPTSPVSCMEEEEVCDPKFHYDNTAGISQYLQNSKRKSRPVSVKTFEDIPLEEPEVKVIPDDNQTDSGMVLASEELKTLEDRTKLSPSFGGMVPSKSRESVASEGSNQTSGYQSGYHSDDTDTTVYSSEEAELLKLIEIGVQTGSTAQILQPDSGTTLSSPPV

[4] = system: BAK (BRAFWT/NRASQ61K) melanoma cells; test: XTT cell viability assay; assay type: cell-based; details: Homo sapiens; cultured NRAS cells, FIG. 2A; read-out: IC80 (equivalent to patient mean peak plasma concentration)
Procedure: MBZ, dabrafenib, and trametinib were purchased from Sigma-Aldrich (St. Louis, Mo.) and ActiveBiochem (Maplewood, N.J.), respectively. […] Cell viability was assessed by an XTT assay, according to a manufacturer's specifications (Biotium Inc (Fremont, Calif.)). Reduced XTT was measured by absorbance at 490 nm on a PerkinElmer Victor 3 (Duluth, Ga.) plate reader. […]
The results shown are based on a single experiment in triplicate, and repeated in three independent experiments with essentially the same results. […] For determining synergism, the combination index (τ) was calculated from single dose-response curves and combination experiments as τ=xA/XA+xB/XB, in which, for a given cytotoxic effect, xA and xB are the concentrations of drugs A and B in the combination, and XA and XB are the concentrations of drugs A and B that achieve the same cytotoxic effect when given alone. […]

[5] = system: patient-derived metastatic melanoma cells harboring a BRAFWT/NRASQ61K mutation profile; test: Treatment of patient-derived metastatic melanoma cells (FIG. 7); assay type: cell-based, Human
Text: In additional studies, patient-derived cells harboring a BRAFWT/NRASQ61K mutation profile were separated into CD133+ populations and CD133− populations.

[6] = system: BAK (BRAFWT/NRASQ61K) melanoma xenografts; test: Mouse xenografting, tumor growth; assay type: in vivo, athymic mice; details: oral gavage; MBZ 40 mg/kg/qad, trametinib 0.1 or 3 mg/kg/qd
Procedure: Athymic mice were injected with 3×10^6 BAK melanoma cells, and tumors were allowed to grow to a volume of 100 mm^3. Animals were then gavaged with vehicle emulsion control, 40 mg/kg/qad (every other day) MBZ, low dose trametinib (LDT; 0.1 mg/kg/qd (once a day)), high dose trametinib (HDT; 3 mg/kg/qd) or a combination of MBZ and LDT or HDT, A) Tumor widths and lengths were measured and volumes calculated as w2×l/2, where width is defined as the smaller of the tumor dimensions. Time 0 is the tumor volume on the first day of treatment; tumor sizes were normalized to their size at time 0 of drug treatment. B) Mice were weighed every other day and body weights (g) plotted over time. […]
Athymic 6-week old male mice (Taconic (Hudson, N.Y.)) were acclimated to the Division of Comparative Medicine at Georgetown University a week prior to xenografting. […] Tumor growth was measured with calipers, and drug treatment started when tumor volumes reached 100 mm^3, after which mice were monitored daily for drug efficacy, as well for adverse effects, including weight and behavior. […] Each tumor from each treatment group was measured on indicated days, and all tumor sizes were then normalized to their size at day 0 of drug treatment. […] The results were expressed as the mean (±SD) of tumor volume in each group.

[7] = system: MEK1/2 and ERK1/2 phosphorylation; test: Immunoblot analysis of xenograft tumor extracts; assay type: in vivo, athymic mice; details: tumors collected at termination of experiment; combination is HDT+MBZ
Procedure: Athymic mice were injected with 3×10^6 BAK melanoma cells, and tumors were allowed to grow to a volume of 100 mm^3. […] Time 0 is the tumor volume on the first day of treatment; tumor sizes were normalized to their size at time 0 of drug treatment. B) Mice were weighed every other day and body weights (g) plotted over time. Data from four experiments were combined for statistical analysis, to compare every mouse from each treatment group. The total mice for all experiments included vehicle control (n=13), LDT (n=12), MBZ (n=12), HDT (n=12), LDT+MBZ (n=12), and HDT+MBZ (n=15). The results are shown as the mean (+SD) of tumor volume in each group. C) and D) ERK and MEK phosphorylation was suppressed in large (C) or small (D) tumor xenografts from mice treated with T+MBZ. Tumor extracts were derived from xenografts, then subjected to immunoblot analysis using antibodies specific for total BRAT, phospho-BRAF, ERK1/2, phospho-ERK1/2, total MEK1/2, phospho-MEK1/2, or GAPDH as a loading control. SDS-PAGE and transfer of separated proteins to nitrocellulose membranes were performed according to standard procedures. […] Immune complexes were detected by incubation with appropriate horseradish peroxidase-conjugated antibodies to mouse or rabbit IgG (1:3000) and enhanced chemiluminescence (Pierce, Rockford, Ill.).

[8] = system: MEK/ERK pathway in BAK cells; test: Immunoblot analysis of cultured cells; assay type: cell-based, Human; details: 100 nM; for pMEK1/2 S217/221 phosphorylation: combination within 30 min
Text: FIGS. 5A-H are RPPA (A) and immunoblot (B-E) analyses that reveal suppression of the MAPK pathway, including ERK and its downstream substrates in melanoma cells exposed to MBZ+trametinib. A. […] Cell extracts derived at indicated times were subjected to RPPA analysis, and unsupervised hierarchal clustering was used to generate a heat map as described in Materials and Methods. […] F)-H) Immunoblot experiments were repeated with an additional melanoma cell line BUL, which harbors the same NRASQ61K mutation. […] All immunoblots were then reprobed with GAPDH as loading control. SDS-PAGE and transfer of separated proteins to nitrocellulose membranes were performed according to standard procedures. Membranes were stained with Ponceau S (0.1%) to verify equal loading and transfer of proteins, and then incubated with antibodies specific for pERK1/2 T202/Y204, pMEK1/2 S217/221, pBAD S-112, total BAD, total ERK1/2, total MEK1/2, BCL2 (Santa Cruz Biotech), BCLXL (Santa Cruz Biotech (Santa Cruz, Calif.)), cleaved PARP (Cell Signaling (Danvers, Mass.)), or GAPDH (Abeam (Cambridge, UK); loading control). Immune complexes were detected by incubation with appropriate horseradish peroxidase-conjugated antibodies to mouse or rabbit IgG (1:3000) and enhanced chemiluminescence (Pierce, Rockford, Ill.).

[9] = system: MEK/ERK pathway in BAK NRASQ61K melanoma cells; test: Reverse-phase protein array (RPPA); assay type: cell-based, Human; details: 10 nM or 100 nM; 1, 8 or 24 h
Procedure: Cell lysates were analyzed by reverse-phase protein array (RPPA). Samples were diluted to 0.5 mg/mL and dilutions printed on slides in triplicate. Slides were immunostained with 137 different antibodies specific for total proteins, or phosphorylated or cleaved products. […] Intensity values were normalized to that of total protein for each sample stained with Sypro Ruby (Invitrogen Carlsbad, Calif.)). Unsupervised cluster analysis http://www.hiv.1an1.ov/content/sequence/HEATMAP/heatmap.html was performed for all proteins in the RPPA using the standard bootstrap method.
Given the potential changes in tumor cell signaling and survival over the long time course of the xenografts, potential mechanisms by which MBZ+trametinib exerts its cytotoxic effects were examined using cultured BAK NRASQ61K melanoma cells. Cells were exposed to MBZ (10 nM or 100 nM), trametinib (10 nM or 100 nM), or a combination of the two for 1, 8, or 24 h, after which cell extracts were subjected to reverse-phase protein array (RPPA) analysis.

[10] = 10 mg/kg/day, chronic MBZ; cited from earlier work

mean plasma exposure at 8 hours ([2]; methylcellulose formulation): 57 ng/mL | mean plasma exposure at 8 hours ([2]; oleic acid formulation): 543 ng/mL | lower exposure with trametinib co-administration vs. methylcellulose [3]: did not alter
Compound: COC(=O)Nc1nc2ccc(C(O)c3ccccc3)cc2[nH]1 (racemic) [RDM, rac Dihydro MBZ]

Kd (BRAFV600E): 210 nM | Kd (BRAFWT): 230 nM | inhibition of kinase activity by MBZ (BRAF): nM range | inhibition of kinase activity by MBZ (MEK): nM range | affinity for CRAF (CRAF): very low affinity | potency towards BRAF versus VEGFR2 (VEGFR2): more potency towards BRAF | concentration at 8 h ([2]; methylcellulose formulation): 473 ng/mL | concentration at 8 h ([2]; oleic acid formulation): 1390 ng/mL | difference in exposure between formulations or combinations ([2]; one hour, P>0.05 Kruskal-Wallis): no difference | lower exposure with trametinib co-administration vs. methylcellulose [3]: did not alter
Compound: COC(=O)Nc1nc2ccc(C(=O)c3ccccc3)cc2[nH]1 [MBZ, methyl N-[6-(benzoyl)-1H-benzimidazol-2-yl] carbamate]
cytotoxicity as single agent [1]: weak cytotoxic activity | concentration at which significant growth inhibition was observed ([1]; 2-way ANOVA): ≥ 10 nM | IC80 [4]: ~470 nM | sensitivity to treatment [5]: sensitivity | tumor growth [6]: did not work as a monotherapy | MEK1/2 and ERK1/2 phosphorylation in tumors [7]: suppress MEK and ERK phosphorylation | ERK1/2 (T202/Y204) phosphorylation ([8]; combination undetectable by 30 min): diminished | pMEK1/2 S217/221 phosphorylation [8]: not inhibited | phosphorylation of proteins associated with the MEK/ERK pathway [9]: down-regulated | mean peak plasma level [10]: 470 nM | peak plasma level, variability between patients [10]: 0.34 to 1.69 µM

Second part, the molecule before the results:

Compound: CC(C)(C)c1nc(-c2cccc(NS(=O)(=O)c3c(F)cccc3F)c2F)c(-c2ccnc(N)n2)s1 [dabrafenib]
cytotoxicity as single agent [1]: resistance

Compound: Nc1nc2cc(C(=O)c3ccccc3)ccc2[nH]1 [2ABB, 2-Amino-5-benzoyl-1H bezimidizole]
mean plasma exposure at 8 hours ([2]; methylcellulose formulation): 425 ng/mL | mean plasma exposure at 8 hours ([2]; oleic acid formulation): 427 ng/mL | lower exposure with trametinib co-administration vs. methylcellulose [3]: ~45% | mean plasma exposure at 8 hours ([3]; trametinib co-administration): 242 ng/mL

Compound: CC(=O)Nc1cccc(-n2c(=O)n(C3CC3)c(=O)c3c(Nc4ccc(I)cc4F)n(C)c(=O)c(C)c32)c1 [trametinib]
pMEK1/2 S217/221 phosphorylation [8]: not inhibited
